Assay results published in patent US10899754B2, “Modulators of indoleamine 2,3-dioxygenase” (GLAXOSMITHKLINE INTELLECTUAL PROPERTY DEVELOPMENT LIMITED, priority 2016, dated 2021).

How the values were obtained:
[1] = biological target: indoleamine 2, 3-dioxygenase (IDO1) (Homo sapiens, UniProt P14902); assay: IDO1 HeLa RapidFire MS assay (kynurenine detection by mass spectrometry); assay type: cell-based; parameters: to induce the expression of indoleamine 2, 3-dioxygenase (IDO1); conditions: HeLa cells, pIC50, read-out: IDO1_HELA_PXC50 (converted)
Sequence of indoleamine 2, 3-dioxygenase (IDO1) (P14902 whole entry): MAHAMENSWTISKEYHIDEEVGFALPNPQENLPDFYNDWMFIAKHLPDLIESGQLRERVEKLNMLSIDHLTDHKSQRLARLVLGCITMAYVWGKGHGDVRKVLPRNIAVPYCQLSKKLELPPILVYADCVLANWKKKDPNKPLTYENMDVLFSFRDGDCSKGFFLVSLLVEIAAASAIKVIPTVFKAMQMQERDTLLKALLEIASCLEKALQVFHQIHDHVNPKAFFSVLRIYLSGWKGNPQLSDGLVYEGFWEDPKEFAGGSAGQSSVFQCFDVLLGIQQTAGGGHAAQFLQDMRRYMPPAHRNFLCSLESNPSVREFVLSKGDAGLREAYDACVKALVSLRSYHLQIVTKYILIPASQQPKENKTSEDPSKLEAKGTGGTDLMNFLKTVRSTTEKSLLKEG
Procedure: IDO1 HeLa RapidFire MS Assay
(§1) Compounds of the present invention were tested via high-throughput cellular assays utilizing detection of kynurenine via mass spectrometry and cytotoxicity as end-points. For the mass spectrometry and cytotoxicity assays, human epithelial HeLa cells (CCL-2; ATCC®, Manassas, Va.) were stimulated with human interferon-γ (IFN-γ) (Sigma-Aldrich Corporation, St. Louis, Mo.) to induce the expression of indoleamine 2, 3-dioxygenase (IDO1). Compounds with IDO1 inhibitory properties decreased the amount of kynurenine produced by the cells via the tryptophan catabolic pathway. Cellular toxicity due to the effect of compound treatment was measured using CellTiter-Glo® reagent (CTG) (Promega Corporation, Madison, Wis.), which is based on luminescent detection of ATP, an indicator of metabolically active cells.
(§2) In preparation for the assays, test compounds were serially diluted 3-fold in DMSO from a typical top concentration of 1 mM or 5 mM and plated at 0.5 μL in 384-well, polystyrene, clear bottom, tissue culture treated plates with lids (Greiner Bio-One, Kremsmünster, Austria) to generate 11-point dose response curves. Low control wells (0% kynurenine or 100% cytotoxicity) contained either 0.5 μL of DMSO in the presence of unstimulated (−IFN-γ) HeLa cells for the mass spectrometry assay or 0.5 μL of DMSO in the absence of cells for the cytotoxicity assay, and high control wells (100% kynurenine or 0% cytotoxicity) contained 0.5 μL of DMSO in the presence of stimulated (+IFN-γ) HeLa cells for both the mass spectrometry and cytotoxicity assays.
(§3) Frozen stocks of HeLa cells were washed and recovered in DMEM high glucose medium with HEPES (Thermo Fisher Scientific, Inc., Waltham, Mass.) supplemented with 10% v/v certified fetal bovine serum (FBS) (Thermo Fisher Scientific, Inc., Waltham, Mass.), and 1× penicillin-streptomycin antibiotic solution (Thermo Fisher Scientific, Inc., Waltham, Mass.). The cells were diluted to 100,000 cells/mL in the supplemented DMEM medium. 50 μL of either the cell suspension, for the mass spectrometry assay, or medium alone, for the cytotoxicity assay, were added to the low control wells, on the previously prepared 384-well compound plates, resulting in 5,000 cells/well or 0 cells/well respectively. IFN-γ was added to the remaining cell suspension at a final concentration of 10 nM, and 50 μL of the stimulated cells were added to all remaining wells on the 384-well compound plates. The plates, with lids, were then placed in a 37° C., 5% CO2 humidified incubator for 2 days.
(§4) Following incubation, the 384-well plates were removed from the incubator and allowed to equilibrate to room temperature for 30 minutes. For the cytotoxicity assay, CellTiter-Glo® was prepared according to the manufacturer's instructions, and 10 μL were added to each plate well. After a twenty minute incubation at room temperature, luminescence was read on an EnVision® Multilabel Reader (PerkinElmer Inc., Waltham, Mass.). For the mass spectrometry assay, 10 μL of supernatant from each well of the compound-treated plates were added to 40 μL of acetonitrile, containing 10 μM of an internal standard for normalization, in 384-well, polypropylene, V-bottom plates (Greiner Bio-One, Kremsmünster, Austria) to extract the organic analytes. Following centrifugation at 2000 rpm for 10 minutes, 10 μL from each well of the acetonitrile extraction plates were added to 90 μL of sterile, distilled H2O in 384-well, polypropylene, V-bottom plates for analysis of kynurenine and the internal standard on the RapidFire 300 (Agilent Technologies, Santa Clara, Calif.) and 4000 QTRAP MS (SCIEX, Framingham, Mass.). MS data were integrated using Agilent Technologies' RapidFire Integrator software, and data were normalized for analysis as a ratio of kynurenine to the internal standard. […]

[2] = test system: human epithelial HeLa cells; assay: HeLa cytotoxicity assay (CellTiter-Glo); assay type: cell-based; conditions: pCC50
Procedure: as §1, §2, §3, §4

IC50 [1] [µM] | Compound | HELA_IDO1_TOX_PXC50 [2]
3.16 | CC(C)CN(c1ccc(-c2cn(C)nc2C(=O)O)cc1Nc1nc2ccccc2o1)C1CCCCC1 [example 176, 4-{3-[(1,3-benzoxazol-2-yl)amino]-4-[cyclohexyl(2-methylpropyl)amino]phenyl}-1-methyl-1H-pyrazole-3-carboxylic acid] | <5
1.58 | CC(C)CN(CC(C)C)c1ccc(C(C)CC(=O)O)cc1Nc1nc(-c2ccncc2)cs1 (centres unmarked) [example 130, 3-{4-[bis(2-methylpropyl)amino]-3-{[4-(pyridin-4-yl)-1,3-thiazol-2-yl]amino]phenyl}butanoic acid] | <4.3
25.1 | CC(C)CN(CC(C)C)c1ccc(C(C)CC(=O)O)cc1Nc1noc(-c2ccccc2)n1.O=C(O)C(F)(F)F (centres unmarked) [example 122, 3-{4-[bis(2-methylpropyl)amino]-3-[(5-phenyl-1,2,4-oxadiazol-3-yl)amino]phenyl}butanoic acid] | <4.3
0.631 | CC(C)CN(c1ccc(C(C)CC(=O)O)cc1NC1=N[C@H](c2ccccc2)CS1)C1CCCCC1 (stereo partly drawn) [example 148, 3-{4-[cyclohexyl(2-methypropyl)amino]-3-{[(4R)-4-phenyl-4,5-dihydro-1,3-thiazol-2-yl]amino}phenyl}butanoic acid] | <5
0.794 | CC(C)CN(CC(C)C)c1ccc(C(C)CC(=O)O)cc1Nc1nc(C2CC2)cs1 (centres unmarked) [example 141, 3-{4-[bis(2-methylpropyl)amino]-3-[(4-cyclopropyl-1,3-thiazol-2-yl)amino]phenyl}butanoic acid] | <5
0.631 | CC(C)CN(CC(C)C)c1ccc(-c2ccccc2C(=O)O)cc1Nc1nc2ccccc2o1 [example 293, 3′-[(1,3-benzoxazol-2-yl)amino]-4′-[bis(2-methylpropyl)amino]-[1,1′-biphenyl]-2-carboxylic acid] | <5
0.316 | CC(C)CN(c1ccc(-c2ccccc2C(=O)O)cc1NCCC#N)C1CCCCC1 [example 277, 3′-[(2-cyanoethyl)amino]-4′-[cyclohexyl(2-methylpropyl)amino]-[1,1′-biphenyl]-2-carboxylic acid] | <5

The remaining lines, values behind:

Compound | IC50 [1] [µM] | HELA_IDO1_TOX_PXC50 [2]
CC(C)CN(c1ccc([C@H](C)CC(=O)O)cc1NC(C)CCO)C1CCCCC1 (stereo partly drawn) [example 185, (3R)-3-{4-[cyclohexyl(2-methylpropyl)amino]-3-[(4-hydroxybutan-2-yl)amino]phenyl}butanoic acid] | 1.58 | <5
CC(C)CN(CC(C)C)c1ccc(C(C)CC(=O)O)cc1Nc1ccc(C(N)=O)cn1 (centres unmarked) [example 204, 3-{4-[bis(2-methylpropyl)amino]-3-[(5-carbamoylpyridin-2-yl)amino]phenyl}butanoic acid] | 3.16 | <5
COc1nsc(Nc2cc(C(C)CC(=O)O)ccc2N(CC(C)C)CC(C)C)n1 (centres unmarked) [example 132, 3-{4-[bis(2-methylpropyl)amino]-3-[(3-methoxy-1,2,4-thiadiazol-5-yl)amino]phenyl}butanoic acid] | 15.8 | <4.3
CC(C)CN(CC(C)C)c1ccc(C(C)CC(=O)O)cc1Nc1ccccc1 (centres unmarked) [example 142, 3-{4-[bis(2-methylpropyl)amino]-3-(phenylamino)phenyl} butanoic acid] | 0.158 | <5
CC(C)CN(CC(C)C)c1ccc(C(C)CC(=O)O)cc1Nc1nc(C2CCOCC2)cs1 (centres unmarked) [example 138, 3-{4-[bis(2-methylpropyl)amino]-3-{[4-(oxan-4-yl)-1,3-thiazol-2-yl]amino}phenyl}butanoic acid] | 5.01 | <4.3
CC(C)CN(c1ccc(-c2ccccc2C(=O)O)cc1Nc1nc(C(F)(F)F)ns1)C1CCNCC1 [example 272, 4′-[(2-methylpropyl)(piperidin-4-yl)amino]-3′-{[3-(trifluoromethyl)-1,2,4-thiadiazol-5-yl]amino}-[1,1′-biphenyl]-2-carboxylic acid] | 5.01 | <5
